Consider 25 molecules from patent US20200190087A1 (priority 2016, published 2020).

The target of one experiment is T1, human μ-opioid receptor (Homo sapiens, UniProt P35372).
T1 construct: expressed in transfected cells; host or cells: CHO-K1
Kind of experiment: Human μ-opioid receptor radioligand assay ([3H]-DAMGO). The class given is binding. The procedure:
Human μ-Opioid Receptor Radioligand Assay
To investigate binding properties of test compounds to human μ-opioid receptor, transfected CHO-K1 cell membranes and [^3H]-DAMGO (Perkin Elmer, ES-542-C), as the radioligand, were used. The assay was carried out with 20 μg of membrane suspension, 1 nM of [^3H]-DAMGO in either absence or presence of either buffer or 10 μM Naloxone for total and non-specific binding, respectively. Binding buffer contained Tris-HCl 50 mM, MgCl2 5 mM at pH 7.4. Plates were incubated at 27° C. for 60 minutes. After the incubation period, the reaction mix was then transferred to MultiScreen HTS, FC plates (Millipore), filtered and plates were washed 3 times with ice-cold 10 mM Tris-HCL (pH 7.4). Filters were dried and counted at approximately 40% efficiency in a MicroBeta scintillation counter (Perkin-Elmer) using EcoScint liquid scintillation cocktail. Preferably, transfected CHO-K1 cell membranes (20 μg) were incubated with 1 nM of [^3H]-DAMGO in assay buffer containing Tris-HCl 50 mM, MgCl2 5 mM at pH 7.4. NBS (non-specific binding) was measured by adding 10 μM Naloxone. The binding of the test compound was measured at five different concentrations. Plates were incubated at 27° C. for 60 minutes. After the incubation period, the reaction mix was then transferred to MultiScreen HTS, FC plates (Millipore), filtered and plates were washed 3 times with ice-cold 10 mM Tris-HCL (pH 7.4). Filters were dried and counted at approximately 40% efficiency in a MicroBeta scintillation counter (Perkin-Elmer) using EcoScint liquid scintillation cocktail.

Experiment [1] has as its target Human α2δ-1 subunit of Cav2.2 calcium channel (Homo sapiens, UniProt P54289). Nature of the experiment: Human α2δ-1 subunit of Cav2.2 calcium channel assay ([3H]-Gabapentin binding). Conditions: human α2δ-1 enriched membranes, 15 nM [3H]-Gabapentin, binding expressed as Ki; read-out: α2δ1 binding activity. On the procedure:
Human α2δ-1 Subunit of Cav2.2 Calcium Channel Assay
Human α2δ-1 enriched membranes (2.5 μg) were incubated with 15 nM of radiolabeled [3H]-Gabapentin in assay buffer containing Hepes-KOH 10 mM, pH 7.4. NSB (non specific binding) was measured by adding 10 μM pregabalin. The binding of the test compound was measured at five different concentrations. After 60 min incubation at 27° C., binding reaction was terminated by filtering through Multiscreen GF/C (Millipore) presoaked in 0.5% polyethyleneimine in Vacuum Manifold Station, followed by 3 washes with ice-cold filtration buffer containing 50 mM Tris-HCl, pH 7.4. Filter plates were dried at 60° C. for 1 hour and 30 μl of scintillation cocktail were added to each well before radioactivity reading. Readings were performed in a Trilux 1450 Microbeta radioactive counter (Perkin Elmer).

The mark [2] stands for this setting: transfected CHO-K1 cell membranes, 1 nM [3H]-DAMGO, binding expressed as Ki, read-out: Mu binding activity.

SMILES strings stand for the structures. Read-outs that look alike come from different tables or passages of the source. Bounds are passed on as bounds.

Chain of Human α2δ-1 subunit of Cav2.2 calcium channel (P54289 25-1103): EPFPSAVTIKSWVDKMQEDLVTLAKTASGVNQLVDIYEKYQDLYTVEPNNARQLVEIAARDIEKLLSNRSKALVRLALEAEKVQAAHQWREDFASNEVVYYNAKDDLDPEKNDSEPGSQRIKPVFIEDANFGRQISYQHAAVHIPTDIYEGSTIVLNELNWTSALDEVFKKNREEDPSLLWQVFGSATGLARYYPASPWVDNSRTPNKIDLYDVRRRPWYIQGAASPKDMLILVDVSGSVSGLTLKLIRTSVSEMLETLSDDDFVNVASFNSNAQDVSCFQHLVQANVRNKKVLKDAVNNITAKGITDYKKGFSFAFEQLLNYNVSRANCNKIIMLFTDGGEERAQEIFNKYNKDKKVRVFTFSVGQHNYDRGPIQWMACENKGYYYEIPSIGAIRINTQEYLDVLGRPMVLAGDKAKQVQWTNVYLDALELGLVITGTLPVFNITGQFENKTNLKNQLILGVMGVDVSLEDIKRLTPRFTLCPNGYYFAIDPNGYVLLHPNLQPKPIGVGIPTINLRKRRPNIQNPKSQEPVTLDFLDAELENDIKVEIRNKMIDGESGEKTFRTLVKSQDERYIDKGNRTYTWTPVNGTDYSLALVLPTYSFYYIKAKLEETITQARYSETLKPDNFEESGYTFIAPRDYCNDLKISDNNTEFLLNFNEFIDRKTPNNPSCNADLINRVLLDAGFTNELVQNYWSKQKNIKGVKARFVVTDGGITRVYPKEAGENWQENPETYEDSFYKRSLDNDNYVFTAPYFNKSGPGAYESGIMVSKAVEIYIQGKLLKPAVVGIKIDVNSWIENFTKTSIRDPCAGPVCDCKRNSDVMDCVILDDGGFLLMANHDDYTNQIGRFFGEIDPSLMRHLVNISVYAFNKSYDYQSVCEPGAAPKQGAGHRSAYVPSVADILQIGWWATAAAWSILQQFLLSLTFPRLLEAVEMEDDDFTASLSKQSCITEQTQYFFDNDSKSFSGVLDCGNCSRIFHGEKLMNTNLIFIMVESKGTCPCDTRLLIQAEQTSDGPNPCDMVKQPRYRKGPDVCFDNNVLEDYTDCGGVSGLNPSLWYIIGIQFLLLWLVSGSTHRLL
T1 sequence (P35372 whole entry): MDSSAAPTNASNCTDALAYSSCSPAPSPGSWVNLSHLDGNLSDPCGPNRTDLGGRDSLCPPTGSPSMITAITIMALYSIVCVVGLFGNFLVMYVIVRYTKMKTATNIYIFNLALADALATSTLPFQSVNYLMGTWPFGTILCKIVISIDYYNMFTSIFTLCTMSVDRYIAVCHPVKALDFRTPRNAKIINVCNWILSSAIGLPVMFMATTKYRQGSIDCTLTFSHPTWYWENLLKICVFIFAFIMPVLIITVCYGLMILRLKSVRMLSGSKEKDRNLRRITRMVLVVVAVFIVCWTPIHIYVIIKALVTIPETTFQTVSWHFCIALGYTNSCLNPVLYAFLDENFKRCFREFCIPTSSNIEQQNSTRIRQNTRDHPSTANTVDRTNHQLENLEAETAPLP

On to `CCOc1ccc(-n2nc3c(C4=CCN(C(=O)OC(C)(C)C)CC4)nnc(C)c3c2C)c(F)c1` [Ex 1, tert-Butyl 4-(2-(4-ethoxy-2-fluorophenyl)-3,4-dimethyl-2H-pyrazolo[3,4-d]pyridazin-7-yl)-3,6-dihydropyridine-1(2H)-carboxylate], for which the Ki was above 500 nM at human μ-opioid receptor (setting [2]) and at least 5000 nM in experiment [1].

`CCOc1ccc(-n2nc3c(C4=CCN(C)CC4)nnc(C)c3c2C)c(F)c1` [Ex 2, 2-(4-Ethoxy-2-fluorophenyl)-3,4-dimethyl-7-(1-methyl-1,2,3,6-tetrahydropyridin-4-yl)-2H-pyrazolo[3,4-d]pyridazine]: the Ki was above 500 nM on human μ-opioid receptor (setting [2]) and at least 5000 nM in experiment [1].

For `CCOc1ccc(-n2nc3c(C4=CN(C(=O)OC(C)(C)C)CCC4)nnc(C)c3c2C)c(F)c1` [Ex 3, tert-Butyl 5-(2-(4-ethoxy-2-fluorophenyl)-3,4-dimethyl-2H-pyrazolo[3,4-d]pyridazin-7-yl)-3,4-dihydropyridine-1(2H)-carboxylate], the Ki was above 500 nM at human μ-opioid receptor (setting [2]) and at least 5000 nM in experiment [1].

In the case of `CCOc1ccc(-n2nc3c(/C=C/CNC(=O)OC(C)(C)C)nnc(C)c3c2C)c(F)c1` [Ex 4, tert-Butyl (E)-(3-(2-(4-ethoxy-2-fluorophenyl)-3,4-dimethyl-2H-pyrazolo[3,4-d]pyridazin-7-yl)allyl)carbamate], the Ki is above 500 nM on human μ-opioid receptor (setting [2]) and at least 5000 nM in experiment [1].

As for `CCOc1ccc(-n2nc3c(/C=C/CN(C)C(=O)OC(C)(C)C)nnc(C)c3c2C)c(F)c1` [Ex 5, tert-Butyl (E)-(3-(2-(4-ethoxy-2-fluorophenyl)-3,4-dimethyl-2H-pyrazolo[3,4-d]pyridazin-7-yl)allyl)(methyl)carbamate], the Ki is above 500 nM on human μ-opioid receptor (setting [2]) and at least 5000 nM in experiment [1].

Regarding `CCOc1ccc(-n2nc3c(-c4ccc(CN(C)C)cc4)nnc(C)c3c2C)c(F)c1` [Ex 6, 1-(4-(2-(4-Ethoxy-2-fluorophenyl)-3,4-dimethyl-2H-pyrazolo[3,4-d]pyridazin-7-yl)phenyl)-N,N-dimethylmethanamine], the Ki at human μ-opioid receptor (setting [2]) was above 500 nM; in experiment [1] it was 500 to 3000 nM.

Turning to `CCOc1ccc(-n2nc3c(-c4ccc(CCN(C)C)cc4)nnc(C)c3c2C)c(F)c1` [Ex 7, 2-(4-(2-(4-Ethoxy-2-fluorophenyl)-3,4-dimethyl-2H-pyrazolo[3,4-d]pyridazin-7-yl)phenyl)-N,N-dimethylethan-1-amine], the Ki is above 500 nM on human μ-opioid receptor (setting [2]) and 500 to 3000 nM in experiment [1].

As to `CCOc1ccc(-n2nc3c(-c4cccc(CN(C)C)c4)nnc(C)c3c2C)c(F)c1` [Ex 8, 1-(3-(2-(4-Ethoxy-2-fluorophenyl)-3,4-dimethyl-2H-pyrazolo[3,4-d]pyridazin-7-yl)phenyl)-N,N-dimethylmethanamine], the Ki on human μ-opioid receptor (setting [2]) was above 500 nM; in experiment [1], 500 to 3000 nM.

For `CCOc1ccc(-n2nc3c(-c4cccc(CCN(C)C)c4)nnc(C)c3c2C)c(F)c1` [Ex 9, 2-(3-(2-(4-Ethoxy-2-fluorophenyl)-3,4-dimethyl-2H-pyrazolo[3,4-d]pyridazin-7-yl)phenyl)-N,N-dimethylethan-1-amine], the Ki is above 500 nM on human μ-opioid receptor (setting [2]) and 500 to 3000 nM in experiment [1].

In the case of `CCOc1ccc(-n2nc3c(-c4ccc5ncn(CCN(C)C)c5c4)nnc(C)c3c2C)c(F)c1` [Ex 10, 2-(6-(2-(4-Ethoxy-2-fluorophenyl)-3,4-dimethyl-2H-pyrazolo[3,4-d]pyridazin-7-yl)-1H-benzo[d]imidazol-1-yl)-N,N-dimethylethan-1-amine], the results for the Ki (on human μ-opioid receptor (setting [2]); in experiment [1]) were above 500 nM and 3000 to 5000 nM, respectively.

Turning to `CCOc1ccc(-n2nc3c(-c4ccc5ncn(CCNC(=O)OC(C)(C)C)c5c4)nnc(C)c3c2C)c(F)c1` [Ex 11, tert-butyl (2-(6-(2-(4-ethoxy-2-fluorophenyl)-3,4-dimethyl-2H-pyrazolo[3,4-d]pyridazin-7-yl)-1H-benzo[d]imidazol-1-yl)ethyl)carbamate], the Ki at human μ-opioid receptor (setting [2]) was above 500 nM; in experiment [1] it was above 5000 nM.

With `CCOc1ccc(-n2nc3c(C4CN(C(=O)OC(C)(C)C)C4)nnc(C)c3c2C)c(F)c1` [Ex 12, tert-Butyl 3-(2-(4-ethoxy-2-fluorophenyl)-3,4-dimethyl-2H-pyrazolo[3,4-d]pyridazin-7-yl)azetidine-1-carboxylate], the figures for the Ki (at human μ-opioid receptor (setting [2]); in experiment [1]) were above 500 nM and at least 5000 nM, respectively.

With `CCOc1ccc(-n2nc3c(C4CCN(C(=O)OC(C)(C)C)CC4)nnc(C)c3c2C)c(F)c1` [Ex 13, tert-Butyl 4-(2-(4-ethoxy-2-fluorophenyl)-3,4-dimethyl-2H-pyrazolo[3,4-d]pyridazin-7-yl)piperidine-1-carboxylate], the Ki at human μ-opioid receptor (setting [2]) was above 500 nM; in experiment [1], at least 5000 nM.

Regarding `CCOc1ccc(-n2nc3c(C4CCN(C)CC4)nnc(C)c3c2C)c(F)c1` [Ex 14, 2-(4-Ethoxy-2-fluorophenyl)-3,4-dimethyl-7-(1-methylpiperidin-4-yl)-2H-pyrazolo[3,4-d]pyridazine], the Ki on human μ-opioid receptor (setting [2]) is above 500 nM; in experiment [1] it was 500 to 3000 nM.

As for `CCOc1ccc(-n2nc3c(C4CCCN(C(=O)OC(C)(C)C)C4)nnc(C)c3c2C)c(F)c1` (centres unmarked) [Ex 15, tert-Butyl-3-(2-(4-ethoxy-2-fluorophenyl)-3,4-dimethyl-2H-pyrazolo[3,4-d]pyridazin-7-yl)piperidine-1-carboxylate], the Ki is above 500 nM on human μ-opioid receptor (setting [2]) and at least 5000 nM in experiment [1].

Take `CCOc1ccc(-n2nc3c(CCCNC(=O)OC(C)(C)C)nnc(C)c3c2C)c(F)c1` [Ex 16, tert-Butyl-(3-(2-(4-ethoxy-2-fluorophenyl)-3,4-dimethyl-2H-pyrazolo[3,4-d]pyridazin-7-yl)propyl)carbamate]: the Ki on human μ-opioid receptor (setting [2]) was above 500 nM; in experiment [1], at least 5000 nM.

For `CCOc1ccc(-n2nc3c(CCCN(C)C(=O)OC(C)(C)C)nnc(C)c3c2C)c(F)c1` [Ex 17, tert-Butyl-(3-(2-(4-ethoxy-2-fluorophenyl)-3,4-dimethyl-2H-pyrazolo[3,4-d]pyridazin-7-yl)propyl)(methyl)carbamate], the Ki at human μ-opioid receptor (setting [2]) is above 500 nM; in experiment [1], at least 5000 nM.

As to `CCOc1ccc(-n2nc3c(C4CCNCC4)nnc(C)c3c2C)c(F)c1` [Ex 18, 2-(4-Ethoxy-2-fluorophenyl)-3,4-dimethyl-7-(piperidin-4-yl)-2H-pyrazolo[3,4-d]pyridazine], the results for the Ki (on human μ-opioid receptor (setting [2]); in experiment [1]) were above 500 nM and 500 to 3000 nM, respectively.

With `CCOc1ccc(-n2nc3c(C4CCCNC4)nnc(C)c3c2C)c(F)c1` (centres unmarked) [Ex 19, 2-(4-Ethoxy-2-fluorophenyl)-3,4-dimethyl-7-(piperidin-3-yl)-2H-pyrazolo[3,4-d]pyridazine], the Ki on human μ-opioid receptor (setting [2]) was above 500 nM; in experiment [1], at least 5000 nM.

As to `CCOc1ccc(-n2nc3c(CCCN)nnc(C)c3c2C)c(F)c1` [Ex 20, 3-(2-(4-Ethoxy-2-fluorophenyl)-3,4-dimethyl-2H-pyrazolo[3,4-d]pyridazin-7-yl)propan-1-amine], the Ki is above 500 nM on human μ-opioid receptor (setting [2]) and 500 to 3000 nM in experiment [1].

On to `CCOc1ccc(-n2nc3c(CCCNC)nnc(C)c3c2C)c(F)c1` [Ex 21, 3-(2-(4-Ethoxy-2-fluorophenyl)-3,4-dimethyl-2H-pyrazolo[3,4-d]pyridazin-7-yl)-N-methylpropan-1-amine], for which the results for the Ki (on human μ-opioid receptor (setting [2]); in experiment [1]) were above 500 nM and at least 5000 nM, respectively.

For the molecule `CCOc1ccc(-n2nc3c(C4CNC4)nnc(C)c3c2C)c(F)c1` [Ex 22, 7-(Azetidin-3-yl)-2-(4-ethoxy-2-fluorophenyl)-3,4-dimethyl-2H-pyrazolo[3,4-d]pyridazine], the Ki at human μ-opioid receptor (setting [2]) is above 500 nM; in experiment [1], at least 5000 nM.

Turning to `CCOc1ccc(-n2nc3c(CCN)nnc(C)c3c2C)c(F)c1` [Ex 23, 2-(2-(4-Ethoxy-2-fluorophenyl)-3,4-dimethyl-2H-pyrazolo[3,4-d]pyridazin-7-yl)ethan-1-amine], the Ki on human μ-opioid receptor (setting [2]) is above 500 nM; in experiment [1], at least 5000 nM.

Regarding `CCOc1ccc(-n2nc3c(-c4ccc5ncn(CCN)c5c4)nnc(C)c3c2C)c(F)c1` [Ex 24, 2-(6-(2-(4-Ethoxy-2-fluorophenyl)-3,4-dimethyl-2H-pyrazolo[3,4-d]pyridazin-7-yl)-1H-benzo[d]imidazol-1-yl)ethan-1-amine], the Ki was above 500 nM on human μ-opioid receptor (setting [2]) and 3000 to 5000 nM in experiment [1].

`CCOc1ccc(-n2nc3c(C4CCN(CCc5ccccc5)CC4)nnc(C)c3c2C)c(F)c1` [Ex 25, 2-(4-Ethoxy-2-fluorophenyl)-3,4-dimethyl-7-(1-phenethylpiperidin-4-yl)-2H-pyrazolo[3,4-d]pyridazine]: the Ki was below 500 nM on human μ-opioid receptor and 500 to 3000 nM in experiment [1].
